According to a melting point compilation (Tetko et al.; mined from patent text by program, amines drawn as free bases though some values may be those of a salt):
Residues, ends and D or L forms follow the SMILES beside them. *: point of attachment. Boc = CC(C)(C)OC(=O)*

| SMILES | melting point [°C] |
| --- | --- |
| Cc1nn(-c2c(Cl)cc(C(F)(F)F)cc2Cl)c(N)c1C#N | 194 to 196 |
| Nc1[nH]ncc1-c1nc(-c2ccco2)n[nH]1 | 175 to 176 |
| CCOC(=O)c1ccc(-c2ccc(O)cc2)cc1 | 144 to 146 |
| CCOc1ccc(OCc2ccc(OCc3nc(-c4ccccc4)oc3C)cc2)c(CC(=O)O)c1 | 122 to 123 |
| COc1ccc2c(c1)c(SC(C)(C)C)c(CC(C)(C)C(=O)O)n2Cc1ccc(Cl)cc1 | 190 to 191 |
| C=C(c1ccc(C(=O)O)s1)c1cc2cc(C(F)(F)F)ccc2n1S(=O)(=O)c1cccc(C(C)(C)C)c1 | 195 |
| CC(CC(=O)O)C(=O)c1ccc(-n2ccnc2)cc1 (stereo not given) | 181 to 182 |
| Cc1cc(C)nc(NCC#N)c1 | 92 to 93 |
| O=C(Nc1nnn[nH]1)c1c[nH]c(=S)n1C1CCc2c(F)cc(F)cc2C1 (stereo not given) | 228 to 230 |
| CCC(CC)c1ccc(Cl)c2nc3n(c12)CCCCN3c1ccc(OC)nc1OC | 85 to 88 |
| COc1ccc2cc(-c3ccc(-c4ccccc4)[nH]3)ccc2c1 | 208 to 210 |
| CC(=O)OC1CCC2(C)C(=CC(=O)C3C4CC(OC(C)=O)C(=O)C4(C)CCC32)C1 (stereo not given) | 206 |
| CN(Cc1ccc2c(Br)c(O)ccc2c1)C(=O)c1oc2ccccc2c1CCc1ccccc1 | 108 to 110 |
| NNC1(Cl)C=Cc2nc(Cl)cnc2C1 (stereo not given) | < 250 |
| Oc1cccc(-c2ccc3nnn(Cc4ccc5ncccc5c4)c3n2)c1 | 255 to 257 |
| N#Cc1c(N2CCCCC2)cc(-c2cccc3ccccc23)c2c1C(=O)c1ccccc1-2 | 202 to 204 |
| O=c1nc(-c2nccs2)sc2ccccc12 | 229 to 230 |
| Cc1cc(O)ccc1C(=O)O | 160 to 161 |
| Oc1ccc(C2CCOC2(c2ccccc2)c2ccc(O)cc2)cc1 (stereo not given) | 194 to 196 |
| Cn1c2cc(Cl)ccc2c2c(=O)[nH]c(-c3ccncc3)nc21 | > 300 |

| SMILES | melting point [°C] |
| --- | --- |
| CC(=O)c1ccc(C(=O)c2ccc(O)c(CC(=O)O)c2)cc1 | 235 |
| CCCCCCC(C(=O)O)n1cnc([N+](=O)[O-])c1 (stereo not given) | 112 to 114 |
| CC(C)n1nc(-c2c(-c3ccccc3)nn3ccc(OCC(=O)OCc4ccccc4)cc23)ccc1=O | 174 |
| CCCCCCCCCCCCCCCCCCOc1cccc(CC(=O)OC)c1 | 43 to 45 |
| O=[N+]([O-])c1cccc(-c2ncc[nH]2)c1 | 193 to 194 |
| O=[N+]([O-])c1oc2c(NS(=O)(=O)C(F)(F)F)cccc2c1-c1ccccc1 | 168 to 170 |
| CCCC(CCC)C(=O)O[C@H]1C[C@H](O)C=C2C=C[C@H](C)[C@H](CC[C@@H]3C[C@@H](O)CC(=O)O3)[C@H]21 | 165 to 166 |
| C/C(=C(\C#N)C(N)=S)N1CCCCCC1 | 158 to 161 |
| Clc1ccc2c3c(cnc2c1)OCCN3 | 219 to 220 |
| Cc1cccc(NC(=O)NCC(=O)N(c2ccccc2)C(C(=O)OC(C)(C)C)c2ccc(N)cc2)c1 (racemic) | 108 |
| COc1ccc(N2C(=O)[C@H](O[Si](C(C)C)(C(C)C)C(C)C)[C@@H]2CC(C)C)cc1 | 59 to 60 |
| CC(C)Nc1ccc2c(c1)N1CCN=C1S2 | 128 |
| c1cc(N2CCNCC2)cnn1 | > 300 |
| COC(=O)C1(C(=O)Nc2ccc(Br)cc2C)CC1 | 106 to 108 |
| COc1ccc2c(c1)CCC1C2CCC2(C)C(O)CCC12 (stereo not given) | 121 to 124 |
| CN(C)S(=O)(=O)c1cc(-c2csc(=Nc3ccc(C(F)(F)F)cc3)n2C)ccc1Cl | 147 to 151 |
| COC(=O)c1ccc2nc3c(c(C)nn3-c3ccccn3)c(Cl)c2c1 | 199 to 200 |
| CC(C)(C)OC(=O)N1CCCC1C(=O)NC(Cc1ccccc1)C(=O)NCC(=O)O (stereo not drawn) (Boc-Pro-Phe-Gly-OH; configuration not given here) | 98 to 100 |
| C=CCc1cc(C=O)ccc1O | 66 |
| CCOC(=O)c1c(C)nc2c(cnn2CC)c1NCCC(C)O (stereo not given) | 94.5 to 96.5 |
